From patent publication US7629317B2, “Control of growth and repair of gastro-intestinal tissues by gastrokines and inhibitors” (The University of Chicago, priority 2001, dated 2009)
Entries after “also recorded” stand apart in the source; their conditions may differ.

Columns and labels:
Staphylococcus aureus = test: Growth of other bacteria and fungi; assay type: cell-based
[1] = tested on: mice with DSS-induced colitis; test: DSS-induced colitis in mice (blood in stool, body weight); assay type: in vivo, C57BL/6 male mice; settings: P<0.01
Description: FIG. 27, Left Panel: Effect of AMP peptide on appearance of blood in the stool of mice with DSS-induced colitis. Mice (n=50) were given 3% dextran sulfate sodium, and stools were assayed daily for the presence of blood. Appearance of bloody diarrhea was delayed in animals treated with AMP peptide (10 mg/kg body weight/day) compared to those given the vehicle (P<0.01). Right panel: Effect of treatment with AMP peptide on body weight of mice with DSS colitis. After animals (n=20) received 3% DSS to drink for 4 days, they were switched to water (day 0 on graph).
To evaluate the therapeutic efficacy of AMP peptide in vivo, colitis of mild to moderate severity was induced in C57BL/6 male mice by giving the animals DSS (3%) dissolved in tap water to drink ad libitum. Evidence of colitis (blood in the stool assayed by hemoccult strips) was found as early as day 1 (FIG. 27, left panel), and in all animals given injections of the vehicle subcutaneously (s.c.) by day 4. AMP peptide was administered s.c. one day before animals were given DSS, and once per day thereafter. Bloody stool was detected in fewer animals given AMP peptide than the vehicle (P<0.01; n=50).
To look for a systemic effect of treatment with AMP peptide during the development of DSS colitis, body weight was measured. During the first 4 days of DSS administration, body weight changed little in peptide- or vehicle-treated mice. Then DSS was discontinued, the animals were given water to drink (day 0; FIG. 27, right panel), and measurements of weight were continued. […] Because DSS treatment appeared to injure barrier function in monolayer cultures of C2 cells, assessed as a decrease in TER (FIG. 22) and reduced occludin in the detergent-insoluble fraction (FIG. 36), a question was whether DSS might adversely affect the content of this TJ protein in vivo. […] Occludin levels in the NP-40-insoluble fraction were assessed by immunoblotting. […]

[2] = tested on: occludin, ZO-1, ZO-2, claudin-5, E-cadherin, JAM; test: Accumulation of tight and adherens junction proteins in C2 cells (immunoblot of insoluble fraction, confocal microscopy); assay type: cell-based, human
Description: To find out how the peptide exerts its cytoprotective effect, C2 cell monolayers were treated with AMP peptide, and oxidant injury was induced with monochloramine 18 hours later. Changes in the levels of specific tight junction (TJ) proteins were checked. Cells were lysed, and proteins of the insoluble/particulate fraction were studied by immunoblotting. […] This observation represents the first evidence that AMP peptide enhances accumulation of specific TJ proteins in colonic epithelial cells. […] To carry out this experiment, C2 cells were exposed to AMP peptide for different periods of time, the NP-40-insoluble fraction was obtained, Western blots were prepared, and the amount of each immunoreactive protein was quantified. A 65% increase in immunoreactivity of each protein compared to control was detected for occludin after 2 hr, and for ZO-1 at 8 hr. Hsc73, which is constitutively expressed in these cells, was not altered by exposure to AMP peptide for up to 18 hr.
Confluent monolayers of C2 cells were treated with AMP peptide or vehicle for 8 hr. Cells were then collected, proteins in the NP-40-insoluble fraction were separated by SDS-PAGE, immunoblots were prepared, and the relative amounts of immunoreactive proteins were compared by densitometric analysis. […] These changes appear relatively specific for occludin, ZO-1, ZO-2, claudin-5, E-cadherin, and JAM because they were not observed for several other proteins localized in the TJ (claudin-1, claudin-2), adherens junction (β-catenin), plasma membrane (Na-K-2Cl cotransporter, α or β subunit of Na-K-ATPase), or cytosol (Rho A, hsc73).
To better understand the mechanism(s) by which AMP peptide enhances accumulation of TJ-associated proteins, experiments were performed to determine whether the peptide exerted its effect at the apical or basolateral surface of C2 cells. Monolayers of C2 cells were grown on Transwell filters, AMP peptide (8:g/ml) was added to the apical or basolateral compartment of the Transwell, and cells were harvested 8 hr later. The NP-40-insoluble fraction was obtained, its proteins separated, and immunoblots were prepared.

[3] = tested on: BSC-1 epithelial cell line; test: Growth (mitogenesis) assay on confluent BSC-1 cells, cells counted 4 days later; assay type: cell-based, monkey; settings: compared with related peptides
Source text: Finding that a 42-amino acid peptide representing a central region of the novel antrum mucosal cell protein AMP-18 had mitogenic activity similar in character to that of the intact protein in pig and mouse antrum extracts (Table 1), has facilitated the characterization of the bio-active region of the molecule. […] Growth activity determinations have so far been accomplished with the kidney epithelial cell line as well as several gastric and intestinal lines.
Non-transformed monkey kidney epithelial cell line BSC-1 and other epithelial cell lines were used to assess effects on growth. In general, conditions were chosen for each line such that cells are grown to confluence in plastic dishes in supplemented growth medium with minimal calf (or fetal) serum for growth (Lieske et al., 1997); BSC-1 cells become confluent at 10^6/60 mm dish with 1% calf serum. At the start of the growth assay the medium on the confluent culture was aspirated and replaced with fresh medium with minimal serum to maintain viability (0.01% for BSC-1) cells. AMP-18 preparations were added to the culture medium and 4 days later the cell monolayer was rinsed, detached with trypsin, and the cells were counted using a hemocytometer. Determination of the capacity of AMP-18 to initiate DNA synthesis was measured by the incorporation of [^3H]thymidine (Toback, 1980); to confirm the DNA synthesis assay, autoradiograms of leveled cells were counted (Kartha and Toback, 1985).

## LDALVKEKKLQGKGPGGPPPK [97–117, peptide 77-97 of the mature protein, same as 97-117 of the human precursor]
Staphylococcus aureus
  growth of Staphylococcus aureus: did not alter the growth
[1]; 3% DSS, 10 mg/kg body weight/day s.c., listed as AMP peptide, 10 mg/kg/day
  appearance of blood in the stool (bloody diarrhea) versus vehicle: fewer animals; also recorded: delayed
[1]; 3 days after switching from 3% DSS to water, 10 mg/kg s.c. daily
  body weight loss versus vehicle: lost less weight
[1]; day 7 after stopping DSS, listed as AMP peptide
  recovery of body weight: complete recovery; also recorded: completely recovered
[2]
  changes in claudin-1, claudin-2, β-catenin, Na-K-2Cl cotransporter, Na-K-ATPase subunits, Rho A, hsc73: not observed
[2]; 48 and 72 hr vs 0 hr
  increase in accumulation of junctional adhesion molecule (JAM): ~50%
[2]; 8 hr
  increased accumulation of E-cadherin: 2 fold
[2]; 8 hr, densitometric analysis
  increased accumulation of occludin, ZO-1, ZO-2 and claudin-5: 3- to 6 fold
[2]; 8 hr, peptides 8 μg/ml, EGF 50 ng/ml
  accumulation of occludin and ZO-1 (specificity): enhanced accumulation
[2]; after oxidant injury
  ZO-1 and occludin levels in the insoluble fraction versus vehicle: two-fold
[2]; basolateral compartment of Transwell, 8 hr
  accumulation of occludin and claudin-5, basolateral exposure: increased accumulation
[2]; exposure up to 18 hr
  Hsc73 expression: not altered
[2]; non-injured cells, after 2 hr
  increase in occludin immunoreactivity compared to control: 65%
[2]; non-injured cells, at 8 hr
  increase in ZO-1 immunoreactivity compared to control: 65%
[2]; peptide 8 μg/ml, 18 hr, listed as AMP peptide
  occludin immunoreactivity versus vehicle-treated control cells: double
[3]; listed as peptide 97-107
  mitogenic activity (in words): equal to the 42-mer
[3]; listed as peptide 97-117
  mitogenic activity (in words): enhanced activity
